{"source": "patent US20100215759A1", "about": "(priority 2009, published 2010)", "key": {"old DBA/2J mice": {"system": "old DBA/2J mice", "test": "Reduction of intraocular pressure (IOP) after application to the eye, TONOLab tonometer", "type": "in vivo", "settings": "versus basal IOP", "source_text": "The main risk factor in the glaucoma is represented by the high intraocular pressure (IOP). See for instance: Libby R. T. et al., Vis Neurosci. 2005 Sep.-Oct., 22(5):637-48 and Tomida I. et al., Br. J. Opthalmol. 2004 May, 88(5):708-13.\nBy using the animal model of old DBA/2J mice (see above) it has been evaluated the efficacy of the compound obtained in example 3.1 in reducing the IOP. As said, this compound has a good affinity towards the CB1 receptors in vitro (example 4) and a CB1 agonist action in vivo (example 5). The intraocular pressure has been determined by a TONOLab Tonometer (Tiolat Oy), as reported by M. E. Pease et al. in J. Glaucoma, 2006 December, 15(6):512-519. The compound was dispersed in the commercial emulsion Tocrisolve™, (Tocris), at a concentration of […] and applied to the eye of old DBA/2J mice (8-10 month age; basal IOP comprised between 19.0 and 22.5 mmHg). The applied emulsion volumes were such that the compound doses resulted, respectively, of 100 μg or 50 μg. WIN 55212-2 was dispersed in Tocrisolve™at the concentration of 5 mg/ml and was the reference cannabinoidergic compound. The determination of the ocular pressure was carried out every 30 minutes up to two hours starting from the administration. The obtained results (average of 6 measurements at each time for experimental groups of 8-10 animals for group/dose) are reported in Table 3. IOP decrease was expressed in percent with respect to the basal value."}, "men": {"system": "men", "settings": "local administration in the eye; cited from earlier work"}}}
{"smiles": "Cc1c(C(=O)c2cccc3ccccc23)c2cccc3c2n1[C@H](CN1CCOCC1)CO3", "note": "[WIN 55212-2]", "values": [{"measurement": "Intraocular Pressure Decrease", "setting": "old DBA/2J mice; 50 μg to the eye in Tocrisolve, 30 minutes", "value": 4.3, "unit": "%"}, {"measurement": "Intraocular Pressure Decrease", "setting": "old DBA/2J mice; 50 μg to the eye in Tocrisolve, 60 minutes", "value": 3.0, "unit": "%"}, {"measurement": "Intraocular Pressure Decrease", "setting": "old DBA/2J mice; 50 μg to the eye in Tocrisolve, 90 minutes", "value": 2.0, "unit": "%"}, {"measurement": "Intraocular Pressure Decrease", "setting": "old DBA/2J mice; 50 μg to the eye in Tocrisolve, 120 minutes", "value": 1.9, "unit": "%"}, {"measurement": "Intraocular Pressure Decrease", "setting": "old DBA/2J mice; 100 μg to the eye in Tocrisolve, 30 minutes", "value": 23.1, "unit": "%"}, {"measurement": "Intraocular Pressure Decrease", "setting": "old DBA/2J mice; 100 μg to the eye in Tocrisolve, 60 minutes", "value": 21.3, "unit": "%"}, {"measurement": "Intraocular Pressure Decrease", "setting": "old DBA/2J mice; 100 μg to the eye in Tocrisolve, 90 minutes", "value": 18.1, "unit": "%"}, {"measurement": "Intraocular Pressure Decrease", "setting": "old DBA/2J mice; 100 μg to the eye in Tocrisolve, 120 minutes", "value": 13.2, "unit": "%"}, {"measurement": "IOP reduction in men", "setting": "men", "value": "significant IOP reduction"}]}
